Drawing on patent publication US11053226B2, “KRAS G12C inhibitors and methods of using the same” (Amgen Inc., priority 2018, dated 2021), this text covers IC50 for 32 compounds.

Read-outs that look alike come from different tables or passages of the source.

Assay [1] concerns Phosphorylation of ERK1/2 in MIA PaCa-2 cells. Description: Phospho-ERK1/2 MSD Assay. The assay is classed as cell-based. The conditions noted are these: MiaPaCa-2 cells.
In assay [2] the test system is Phosphorylation of ERK1/2 in A549 cells. The assay is described as follows: Phospho-ERK1/2 MSD Assay (A549). The assay is classed as cell-based.
Assay [3] has as its target GDP-bound KRAS protein (aa 1-169), containing both G12C and C118A amino acid substitutions (Homo sapiens (Human), UniProt P01116, C118A/G12C). Description: Coupled Nucleotide Exchange Assay. It is filed as biochemical. As for the experimental part: For compounds in Table 9, the following assay conditions were employed:
Coupled Nucleotide Exchange Assay:
The assay plates were then read on a PerkinElmer EnVision Multilabel Reader, using AlphaScreen® technology, and data were analyzed using a 4-parameter logistic model to calculate IC50 values.

The mark [4] stands for this setting: Homo sapiens, MIA PaCa-2, read-out: pERK IC50 (4 h), 4 h compound treatment.
Where [5] appears, read: Homo sapiens, read-out: pERK IC50 (4 h), 4 h compound treatment.
[6] abbreviates: read-out: Coupled Exchange IC50 (5 min), 5 min compound pre-incubation.
[7] abbreviates: read-out: Coupled Exchange IC50 (2 h), 2 h compound pre-incubation.
Setting [8] is: read-out: Coupled Exchange IC50 (20 h), 20 h compound pre-incubation.
[9] abbreviates: read-out: pERK IC50 (4 h, MiaPaCa-2), 4 h compound treatment.
Where [10] appears, read: read-out: pERK IC50 (4 h, A549), 4 h compound treatment.
The mark [11] stands for this setting: Homo sapiens, MIA PaCa-2, 4 h, read-out: pERK IC50 (4 h, MiaPaCa-2), 4 h compound treatment.
[12] abbreviates: Homo sapiens, A549, 4 h, read-out: pERK IC50 (4 h, A549), 4 h compound treatment.

GDP-bound KRAS protein (aa 1-169), containing both G12C and C118A amino acid substitutions, sequence (P01116 other isoform, or with tags, fused parts or gaps G12C/C118A): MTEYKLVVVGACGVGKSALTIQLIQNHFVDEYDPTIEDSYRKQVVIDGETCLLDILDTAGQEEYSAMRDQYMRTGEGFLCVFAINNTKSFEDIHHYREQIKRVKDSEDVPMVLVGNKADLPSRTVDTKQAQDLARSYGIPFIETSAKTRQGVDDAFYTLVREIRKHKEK

`C=CC(=O)N1CC(NC(=O)Cn2cc(I)c3cc([N+](=O)[O-])ccc32)C1` [Example 128]: the IC50 is 35.6 µM in assay [1] (setting [4]); over 100 µM in assay [2] (setting [5]); over 250 µM in assay [3] (setting [6]); 7.24 µM in assay [3] (setting [7]); 1.18 µM in assay [3] (setting [8]).
With `C=CC(=O)N1CC(NC(=O)Cn2cc(-c3c(C)ccc4cn[nH]c34)c3cc(Br)ccc32)C1` [Example 130], the half-inhibitory concentration (IC50) in assay [1] (setting [4]) is 37 µM; in assay [2] (setting [5]), 50.1 µM; in assay [3] (setting [7]), 4.49 µM; in assay [3] (setting [8]), 1.02 µM.
As for `C=CC(=O)N1CC(NC(=O)C(C)(C)n2c(C)c(C(=O)N3CCc4c(cccc4OC)C3)c3cc(Cl)ccc32)C1` [Example 131], the IC50 in assay [1] (setting [4]) stood at 37 µM; in assay [2] (setting [5]), 50.6 µM; in assay [3] (setting [7]) it was 5.54 µM; in assay [3] (setting [8]) it was 1.04 µM.
The like results for `C=CC(=O)N1CC(NC(=O)Cn2cc(C3CC3)c3cc(Br)ccc32)C1` [Example 132] were, in that order, 37.9 µM, over 100 µM, 9.52 µM and 1.71 µM.
As for `C=CC(=O)N1CC(NC(=O)Cn2c3c(c4cc(Br)ccc42)CC(c2ccccc2)CC3)C1` (centres unmarked) [Example 133], the IC50 was 37.9 µM in assay [1] (setting [4]), over 100 µM in assay [2] (setting [5]), 7.06 µM in assay [3] (setting [7]) and 1.33 µM in assay [3] (setting [8]).
As for `C=CC(=O)N1CC(NC(=O)Cn2c3c(c4cc([N+](=O)[O-])ccc42)CCCCC3)C1` [Example 135], the IC50 in assay [1] (setting [9]) was 38.7 µM; in assay [2] (setting [10]), over 100 µM; in assay [3] (setting [7]) it was 4.25 µM; in assay [3] (setting [8]), 0.63 µM.
As to `C=CC(=O)N1CC(NC(=O)Cn2cc(CNCc3ccccc3)c3cc(Br)ccc32)C1` [Example 136], the IC50 in assay [1] (setting [4]) was determined as 39.6 µM; in assay [2] (setting [5]), 36.6 µM; in assay [3] (setting [7]) it was 9.85 µM; in assay [3] (setting [8]), 1.91 µM.
On the same counts, the results for `C=CC(=O)N1CC(NC(=O)Cn2cc(-c3ccc(F)cc3F)c3cc(Br)ccc32)C1` [Example 137] are 40.4 µM, 16.5 µM, 6.9 µM and 1.13 µM.
On to `C=CC(=O)N1CC(NC(=O)Cn2cc(I)c3cc(Cl)ccc32)C1` [Example 139], for which the IC50 in assay [1] (setting [4]) is 40.6 µM; in assay [2] (setting [5]) it was over 100 µM; in assay [3] (setting [6]), over 250 µM; in assay [3] (setting [7]) it was 4.15 µM; in assay [3] (setting [8]) it was 0.52 µM.
`C=CC(=O)N1CC(NC(=O)Cn2c3c(c4cc(Br)ccc42)CN(C(=O)OCc2ccccc2)CC3)C1` [Example 141]: the IC50 in assay [1] (setting [4]) is 42.4 µM; in assay [2] (setting [5]), 19.3 µM; in assay [3] (setting [7]), 7.25 µM; in assay [3] (setting [8]), 1.51 µM.
On the same counts, the results for `C=CC(=O)N1CC(NC(=O)Cn2cc(-c3c(C)ccc4[nH]ncc34)c3cc(Cl)ccc32)C1` [Example 142] are 44.1 µM, over 100 µM, 3.71 µM and 0.83 µM.
Turning to `C=CC(=O)N1CC(NC(=O)Cn2c3c(c4cc([N+](=O)[O-])ccc42)CCCC3)C1` [Example 143], the IC50 is 44.9 µM in assay [1] (setting [9]), over 100 µM in assay [2] (setting [10]), 4.53 µM in assay [3] (setting [7]) and 0.85 µM in assay [3] (setting [8]).
In the case of `C=CC(=O)N1CC(NC(=O)Cn2cc(-c3c(O)cccc3F)c3cc(Cl)ccc32)C1` [Example 144], the half-inhibitory concentration (IC50) was 46.8 µM in assay [1] (setting [4]), over 100 µM in assay [2] (setting [5]), 3.84 µM in assay [3] (setting [7]) and 0.75 µM in assay [3] (setting [8]).
The like results for `C=CC(=O)N1CC(NC(=O)Cn2cc(CN3CCc4ccccc4C3)c3cc(Br)ccc32)C1` [Example 145] were, in that order, 46.9 µM, 50.9 µM, 5.7 µM and 1.12 µM.
On the same counts, the results for `C=CC(=O)N1CC(NC(=O)Cn2cc(C3CC3)c3ccc(-c4ccccc4Cl)cc32)C1` [Example 146] are 47.1 µM, 74.2 µM, 3.8 µM and 0.74 µM.
Take `C=CC(=O)N1CC(NC(=O)Cn2c(C)c(-c3cccc4ncccc34)c3cc(Cl)ccc32)C1` [Example 147]: the IC50 in assay [1] (setting [4]) is 49.6 µM; in assay [2] (setting [5]) it was over 100 µM; in assay [3] (setting [7]) it was 2.6 µM; in assay [3] (setting [8]), 0.52 µM.
`COc1cccc2c1CCN(C(=O)c1cn(CC(=O)NC3CN(C(=O)/C=C/CN(C)C)C3)c3ccc(Br)cc13)C2` [Example 149]: the IC50 in assay [1] (setting [11]) is 50.7 µM; in assay [2] (setting [12]), over 100 µM; in assay [3] (setting [7]), 3.6 µM; in assay [3] (setting [8]), 0.68 µM.
With `C=CC(=O)N1CC(NC(=O)Cn2cc(I)c3ccc(-c4ccccc4Cl)cc32)C1` [Example 150], the IC50 in assay [1] (setting [4]) was 50.8 µM; in assay [2] (setting [5]), over 100 µM; in assay [3] (setting [7]), 2.92 µM; in assay [3] (setting [8]) it was 0.59 µM.
On to `C=CC(=O)N1CC(NC(=O)Cn2cc(-c3ccccc3OC)c3cc(Br)ccc32)C1` [Example 151], for which the IC50 in assay [1] (setting [4]) is 51.2 µM; in assay [2] (setting [5]), 14.6 µM; in assay [3] (setting [7]), 4.33 µM; in assay [3] (setting [8]), 0.92 µM.
For the compound `C=CC(=O)N1CC(NC(=O)Cn2cc(C(=O)NCC(CC)Oc3cccc(Cl)c3)c3cc(Br)ccc32)C1` (centres unmarked) [Example 152], the IC50 in assay [1] (setting [11]) stood at 51.6 µM; in assay [2] (setting [12]) it was 68.8 µM; in assay [3] (setting [7]), 1.8 µM; in assay [3] (setting [8]), 0.47 µM.
Turning to `C=CC(=O)N1CC(NC(=O)Cn2cc(I)c3cc(Br)cc(C)c32)C1` [Example 153], the IC50 in assay [1] (setting [4]) was 51.8 µM; in assay [2] (setting [5]), over 100 µM; in assay [3] (setting [7]) it was 1.58 µM; in assay [3] (setting [8]), 0.26 µM.
Turning to `C=CC(=O)N1CC(NC(=O)Cn2cc(Cl)c3cc(Br)ccc32)C1` [Example 154], the IC50 was 52.1 µM in assay [1] (setting [4]); over 100 µM in assay [2] (setting [5]); 56.2 µM in assay [3] (setting [6]); 5.12 µM in assay [3] (setting [7]); 0.86 µM in assay [3] (setting [8]).
As for `C=CC(=O)N1CC(NC(=O)Cn2cc(C(=O)N(C)CC(=O)Nc3ccc(Cl)c(C(F)(F)F)c3)c3cc(Br)ccc32)C1` [Example 158], the concentration for half-maximal inhibition (IC50) is 53.9 µM in assay [1] (setting [11]), over 100 µM in assay [2] (setting [12]), 0.44 µM in assay [3] (setting [7]) and 0.16 µM in assay [3] (setting [8]).
With `C=CC(=O)N1CC(NC(=O)Cn2c3c(c4cc(Br)ccc42)CCCC3)C1` [Example 160], the IC50 in assay [1] (setting [4]) was 58.3 µM; in assay [2] (setting [5]), over 100 µM; in assay [3] (setting [7]) it was 4.95 µM; in assay [3] (setting [8]), 1.07 µM.
For the compound `C=CC(=O)N1CC(NC(=O)Cn2cc(C(=O)NCCc3ccc(Cl)cc3Cl)c3cc(Br)ccc32)C1` [Example 161], the concentration for half-maximal inhibition (IC50) was 79.5 µM in assay [1] (setting [11]), over 100 µM in assay [2] (setting [12]), 0.99 µM in assay [3] (setting [7]) and 0.23 µM in assay [3] (setting [8]).
The like results for `C=CC(=O)N1CC(NC(=O)Cn2cc(C(=O)NCCc3ccc(Cl)cc3Cl)c3cc(Br)cc(C)c32)C1` [Example 162] were, in that order, 81.5 µM, over 100 µM, 0.76 µM and 0.26 µM.
For `C=CC(=O)N1CC(NC(=O)Cn2c(C(=O)NCc3ccccc3)cc3cc(Br)ccc32)C1` [Example 164], the IC50 is over 100 µM in assay [1] (setting [4]), over 100 µM in assay [2] (setting [5]), 10.7 µM in assay [3] (setting [7]) and 1.11 µM in assay [3] (setting [8]).
For the compound `C=CC(=O)N1CC(NC(=O)Cn2ccc3cc(Cl)cc(Cl)c32)C1` [Example 165], the concentration for half-maximal inhibition (IC50) in assay [1] (setting [4]) was over 100 µM; in assay [2] (setting [5]), over 100 µM; in assay [3] (setting [7]) it was 13.2 µM; in assay [3] (setting [8]) it was 2.65 µM.
Turning to `C=CC(=O)N1CC(NC(=O)Cn2cc(C(=O)NCCC(=O)Nc3cccc4ccccc34)c3cc(Br)ccc32)C1` [Example 170], the IC50 in assay [1] (setting [11]) was over 100 µM; in assay [2] (setting [12]) it was over 100 µM; in assay [3] (setting [7]), 3 µM; in assay [3] (setting [8]), 0.65 µM.
In the case of `C=CC(=O)N1CC(NC(=O)Cn2cc(C(=O)NCCc3nc(C)c(C)s3)c3cc(Br)ccc32)C1` [Example 176], the half-maximal inhibitory concentration (IC50) was over 100 µM in assay [1] (setting [11]), over 100 µM in assay [2] (setting [12]), 2.8 µM in assay [3] (setting [7]) and 0.6 µM in assay [3] (setting [8]).
As to `C=CC(=O)N1CC(NC(=O)Cn2cc(C(=O)NCCC(=O)Nc3ccccc3CC)c3cc(Br)cc(C)c32)C1` [Example 177], the IC50 was over 100 µM in assay [1] (setting [11]), over 100 µM in assay [2] (setting [12]), 0.43 µM in assay [3] (setting [7]) and 0.17 µM in assay [3] (setting [8]).
In the case of `C=CC(=O)N1CC(NC(=O)Cn2cc(C(=O)NCCc3ccc(Cl)cc3Cl)c3cc(Cl)cc(Cl)c32)C1` [Example 178], the IC50 is over 100 µM in assay [1] (setting [11]), over 100 µM in assay [2] (setting [12]), 0.63 µM in assay [3] (setting [7]) and 0.22 µM in assay [3] (setting [8]).

As a reminder, the IC50 is the midpoint of a concentration-inhibition curve.
